Assay results from PubChem BioAssay (NCI).
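Values below derive from 48-hour exposures of cells grown in 96-well plates, with endpoints linearly interpolated between the two concentrations bracketing the appropriate inhibition level. GI50 = concentration required for 50% inhibition of growth. TGI is the concentration that stops growth completely.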

Columns and labels:
Test in all cases: NCI-60 cell line screen, 48 h
[1] = test system: SNB-19 CNS
[2] = test system: NCI/ADR-RES ovarian
[3] = test system: HOP-62 NSCLC
[4] = test system: MDA-MB-231 breast
[5] = test system: SK-MEL-2 melanoma
[6] = test system: SK-MEL-5 melanoma
[7] = test system: HT29 colon
[8] = test system: NCI-H460 lung
[9] = test system: UACC-257 melanoma
[10] = test system: K-562 leukemia
[11] = test system: SF-295 CNS
[12] = test system: RXF 393 renal
[13] = test system: SF-268 CNS
[14] = test system: A549 NSCLC
[15] = test system: OVCAR-8 ovarian
[16] = test system: BT-549 breast
[17] = test system: NCI-H522 lung
[18] = test system: SK-OV-3 ovarian
[19] = test system: IGROV1 ovarian
[20] = test system: MOLT-4 leukemia
[21] = test system: HS 578T breast
[22] = test system: SK-MEL-28 melanoma
[23] = test system: OVCAR-5 ovarian
[24] = test system: HCC-2998 colon
[25] = test system: HL-60(TB) leukemia
[26] = test system: T-47D breast
[27] = test system: HCT-116 colon
[28] = test system: COLO 205 colon
[29] = test system: EKVX NSCLC
[30] = test system: M14 melanoma
[31] = test system: HOP-92 NSCLC
[32] = test system: SR leukemia
[33] = test system: SN12C renal
[34] = test system: NCI-H226 lung
[35] = test system: PC-3 prostate
[36] = test system: RPMI-8226 leukemia
[37] = test system: HCT-15 colon
[38] = test system: MCF7 breast
[39] = test system: SF-539 CNS
[40] = test system: UO-31 renal
[41] = test system: SW-620 colon
[42] = test system: MDA-MB-435
[43] = test system: SNB-75 CNS
[44] = test system: U251 CNS
[45] = test system: A498 renal
[46] = test system: 786-0 renal
[47] = test system: CCRF-CEM leukemia
[48] = test system: UACC-62 melanoma
[49] = test system: LOX IMVI melanoma
[50] = test system: DU-145 prostate
[51] = test system: KM12 colon
[52] = test system: OVCAR-3 ovarian
[53] = test system: NCI-H23 lung
[54] = test system: OVCAR-4 ovarian

Compound Cc1ccc(-c2csc3ncnc(Nc4cccc(O)c4)c23)cc1 has a GI50 [1] of 50.7 µM, a TGI [1] of over 100 µM and a GI50 [2] of 24.7 µM. The TGI [2] was 60.3 µM, the GI50 [3] was 21.8 µM and the TGI [3] was 49.6 µM. The GI50 [4] was over 100 µM, the TGI [4] was over 100 µM and the GI50 [5] was 22.4 µM. It also gave a TGI [5] of 62.4 µM, a GI50 [6] of 22.8 µM and a TGI [6] of 51.2 µM. The GI50 [7] was 39.7 µM, the TGI [7] was over 100 µM and the GI50 [8] was 29.2 µM. It also gave a TGI [8] of 76.3 µM, a GI50 [9] of 17.5 µM and a TGI [9] of 38.9 µM. It also gave a GI50 [10] of 5.6 µM, a TGI [10] of over 100 µM and a GI50 [11] of 2.13 µM. The TGI [11] was 24.7 µM, the GI50 [12] was 48.2 µM and the TGI [12] was 81.2 µM. For the same compound, the GI50 [13] was over 100 µM, the TGI [13] was over 100 µM and the GI50 [14] was 41.8 µM. The TGI [14] was 92.5 µM, the GI50 [15] was 32.3 µM and the TGI [15] was over 100 µM. It also gave a GI50 [16] of 37 µM, a TGI [16] of 98.2 µM and a GI50 [17] of 18.5 µM. The TGI [17] was 62.1 µM, the GI50 [18] was 38.6 µM and the TGI [18] was over 100 µM. It also gave a GI50 [19] of 17.8 µM, a TGI [19] of 57.5 µM and a GI50 [20] of 41.6 µM. It also gave a TGI [20] of over 100 µM, a GI50 [21] of 36.5 µM and a TGI [21] of over 100 µM. It also gave a GI50 [22] of 43.1 µM, a TGI [22] of over 100 µM and a GI50 [23] of 25.5 µM. For the same compound, the TGI [23] was 69.6 µM, the GI50 [24] was 17.2 µM and the TGI [24] was 34.1 µM. For the same compound, the GI50 [25] was 18.2 µM, the TGI [25] was 51.5 µM and the GI50 [26] was 44 µM. It also gave a TGI [26] of over 100 µM, a GI50 [27] of 20 µM and a TGI [27] of 39.6 µM. The GI50 [28] was 36.4 µM, the TGI [28] was over 100 µM and the GI50 [29] was 37.8 µM. For the same compound, the TGI [29] was 98 µM, the GI50 [30] was 17.9 µM and the TGI [30] was 37.3 µM. For the same compound, the GI50 [31] was 14.3 µM, the TGI [31] was 35.9 µM and the GI50 [32] was 15.2 µM. The TGI [32] was 77.5 µM, the GI50 [33] was 34.1 µM and the TGI [33] was over 100 µM. The GI50 [34] was 38.1 µM, the TGI [34] was over 100 µM and the GI50 [35] was 16.3 µM. For the same compound, the TGI [35] was 37.1 µM, the GI50 [36] was 14.5 µM and the TGI [36] was 37 µM. For the same compound, the GI50 [37] was 19.8 µM, the TGI [37] was 44.5 µM and the GI50 [38] was 41.6 µM. The TGI [38] was over 100 µM, the GI50 [39] was 37.7 µM and the TGI [39] was over 100 µM. For the same compound, the GI50 [40] was 35.5 µM, the TGI [40] was over 100 µM and the GI50 [41] was 42.4 µM. It also gave a TGI [41] of over 100 µM, a GI50 [42] of 16.7 µM and a TGI [42] of 33.6 µM. For the same compound, the GI50 [43] was 39.6 µM, the TGI [43] was over 100 µM and the GI50 [44] was 22.5 µM. It also gave a TGI [44] of 58.6 µM, a GI50 [45] of 30.8 µM and a TGI [45] of 66.5 µM. It also gave a GI50 [46] of 19.9 µM, a TGI [46] of 42.8 µM and a GI50 [47] of 21 µM. For the same compound, the TGI [47] was 91.1 µM, the GI50 [48] was 28 µM and the TGI [48] was 73 µM. For the same compound, the GI50 [49] was 25.9 µM, the TGI [49] was 62 µM and the GI50 [50] was 42.1 µM. The TGI [50] was over 100 µM, the GI50 [51] was 25.7 µM and the TGI [51] was 69 µM. For the same compound, the GI50 [52] was 22.3 µM, the TGI [52] was 50.4 µM and the GI50 [53] was 22.6 µM. For the same compound, the TGI [53] was 46.5 µM, the GI50 [54] was 44.6 µM and the TGI [54] was over 100 µM.
